Data on two molecules can be found in ChEMBL document CHEMBL5104190, “Design, Synthesis, Biological Activity, and Structural Analysis of Novel Des-C-Ring and Aromatic-D-Ring Analogues of 1α,25-Dihydroxyvitamin D3” (J Med Chem, 2022).

The structures appear in SMILES notation. The source made the active and inactive calls. The rule behind the calls is not given here.

In data set [1] the target is T1, Vitamin D3 receptor (Homo sapiens) (UniProt P11473).
T1 sequence (whole entry): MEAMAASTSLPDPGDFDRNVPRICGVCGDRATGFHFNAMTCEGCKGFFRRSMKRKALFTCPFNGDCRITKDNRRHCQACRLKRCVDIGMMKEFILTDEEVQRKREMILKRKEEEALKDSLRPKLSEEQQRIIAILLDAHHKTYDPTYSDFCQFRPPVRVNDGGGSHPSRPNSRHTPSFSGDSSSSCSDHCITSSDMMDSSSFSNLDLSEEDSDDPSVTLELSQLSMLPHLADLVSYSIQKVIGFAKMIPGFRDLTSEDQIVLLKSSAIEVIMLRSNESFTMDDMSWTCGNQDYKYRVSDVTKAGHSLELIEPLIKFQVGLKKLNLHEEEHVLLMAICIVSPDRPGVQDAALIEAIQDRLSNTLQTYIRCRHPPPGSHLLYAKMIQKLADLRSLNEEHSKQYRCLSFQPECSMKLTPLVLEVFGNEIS
As to the kind of experiment: Competitive binding affinity to His-tagged human VDR LBD (156 to 453 residues) expressed in Escherichia coli […] (DE3) cells at 0.1 to 100 nM in presence of 1,25D3 by fluorescent polarization assay relative to (1R,3S)-5-(2-((1R,3aS,7aR)-1-((R)-6-hydroxy-6-methylheptan-2-yl)-7a-methyloctahydro-4H-inden-4-ylidene)ethylidene)-4-methylenecyclohexane-1,3-diol. To be noted: dose 0.1-100 nM.

The target of data set [2] is T2, CYP24A1 (Homo sapiens, UniProt Q07973).
T2 sequence (Q07973 whole entry): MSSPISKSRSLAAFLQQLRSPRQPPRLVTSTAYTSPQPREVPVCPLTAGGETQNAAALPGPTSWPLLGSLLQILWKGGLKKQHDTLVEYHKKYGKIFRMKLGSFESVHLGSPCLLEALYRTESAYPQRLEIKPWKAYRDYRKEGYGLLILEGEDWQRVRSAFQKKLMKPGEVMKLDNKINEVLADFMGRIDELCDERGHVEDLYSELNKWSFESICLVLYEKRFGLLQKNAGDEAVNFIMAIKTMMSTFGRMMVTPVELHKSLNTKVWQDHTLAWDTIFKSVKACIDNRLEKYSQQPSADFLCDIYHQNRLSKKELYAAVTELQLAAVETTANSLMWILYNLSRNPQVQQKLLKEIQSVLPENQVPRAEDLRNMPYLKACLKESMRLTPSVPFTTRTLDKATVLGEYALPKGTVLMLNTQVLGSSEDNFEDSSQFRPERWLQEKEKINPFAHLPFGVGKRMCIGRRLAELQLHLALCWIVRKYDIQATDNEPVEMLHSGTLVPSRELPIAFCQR
In words: Induction of CYP24A1 (unknown orgin) transcriptional activity trasfected in human MCF7 cells at 0.1 to 1000 nM incuabted for 48 hrs by luciferase reporter gene assay relative to (1R,3S)-5-(2-((1R,3aS,7aR)-1-((R)-6-hydroxy-6-methylheptan-2-yl)-7a-methyloctahydro-4H-inden-4-ylidene)ethylidene)-4-methylenecyclohexane-1,3-diol. It is filed as ADME, cell-based. To be noted: MCF7 cells transfected with CYP24A1 luciferase reporter, dose 0.1-1000 nM.

Data set [3] has as its system MCF7. In words: Increase in E-cadherin expression level in human MCF7 cells at 0.1 to 100 nM measured for 48 hrs by Western blot analysis. The data set is classed as functional, cell-based. To be noted: dose 0.1-100 nM. On the technique in general: In western blotting, separated proteins are transferred to a membrane and probed.
In data set [4] the target is T3, Vitamin D3 receptor (Homo sapiens, UniProt P11473).
T3 sequence (P11473 whole entry): T1 sequence (whole entry)
As to the kind of experiment: Competitive binding affinity to His-tagged human VDR LBD (156 to 453 residues) expressed in Escherichia coli […] (DE3) cells in presence of 1,25D3 by fluorescent polarization assay.

As usually defined, the Emax is the size of the effect at its maximum, as opposed to the concentration needed. Broadly, the IC50 is the concentration needed to halve the response being measured. For `C=C1/C(=C\C=C\c2cc(CCCCCC(C)(C)O)cc(CCCCCC(C)(C)O)c2)C[C@@H](O)C[C@@H]1O`, the Emax in data set [1] worked out at 7.9%. The Emax at 48 h in data set [2] stood at 102%. In addition, in data set [3], the outcome was Active. The IC50 in data set [4] came out at 15.7 nM.
`C=C1/C(=C\C=C(/CCCCCC(C)(C)O)c2cccc(CCCCCC(C)(C)O)c2)C[C@@H](O)C[C@@H]1O`: in data set [1], the Emax came to 4.5%. The molecule further came in with an Emax at 48 h in data set [2] of 54%. Further, the result in data set [3] was Active. In data set [4], the IC50 worked out at 27.3 nM.
